Assay results taken from patent publication US9708336B2, “Metallo-beta-lactamase inhibitors” (priority 2014, dated 2017).
Like-named read-outs stand apart in the source and are kept apart here.

Assays:
[1] = test system: Escherichia coli expressing NDM-1 (CLB30005); assay: Antibiotic potentiation activity: synergistic concentration (MITC95) with imipenem, OD600 growth; type: cell-based; settings: for Escherichia coli expressing NDM-1 (CLB 30005) MITC95: concentration giving 95% inhibition of bacterial growth; for Escherichia coli MITC95: Escherichia coli expressing NDM-1 (CLB30005), 95% growth inhibition
How it was run: (§1)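 Spectrophotometric growth readings were taken following 22–24 h at 35 °C. Before that, organisms in 1.1× CAMHB were mixed with imipenem, used at 4 μg/ml in assay, and test compound.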

[2] = test system: Serratia marcescens expressing IMP-1 (CL5741); assay: as above; type: cell-based; settings: for Serratia marcescens expressing IMP-1 (CL5741) MITC95: concentration giving 95% inhibition of bacterial growth; for Serratia marcescens MITC95: Serratia marcescens expressing IMP-1 (CL5741), 95% growth inhibition
How it was run: as §1

[3] = test system: Klebsiella pneumoniae expressing VIM-1 (IHMA599644); assay: as above; type: cell-based; settings: for Klebsiella pneumoniae expressing VIM-1 (IHMA 599644) MITC95: concentration giving 95% inhibition of bacterial growth; for Klebsiella pneumoniae MITC95: Klebsiella pneumoniae expressing VIM-1 (IHMA599644), 95% growth inhibition
How it was run: as §1

IMP-1 = IMP-1 (Serratia marcescens, UniProt P52699); assay: biochemical; type: biochemical; settings: read-out: IMP-1 IC50
IMP-1, sequence (P52699 whole entry, looked up): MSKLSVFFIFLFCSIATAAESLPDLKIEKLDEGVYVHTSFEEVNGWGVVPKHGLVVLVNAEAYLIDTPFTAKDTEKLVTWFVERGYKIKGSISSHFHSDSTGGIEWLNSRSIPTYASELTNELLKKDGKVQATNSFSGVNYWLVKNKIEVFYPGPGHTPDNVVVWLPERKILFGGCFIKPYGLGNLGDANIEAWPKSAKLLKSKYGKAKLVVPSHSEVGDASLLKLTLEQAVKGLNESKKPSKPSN

NDM-1 = NDM-1 (Klebsiella pneumoniae, UniProt C7C422); assay: biochemical; type: biochemical; settings: read-out: NDM-1 IC50
NDM-1, sequence (C7C422 whole entry, looked up, species assumed): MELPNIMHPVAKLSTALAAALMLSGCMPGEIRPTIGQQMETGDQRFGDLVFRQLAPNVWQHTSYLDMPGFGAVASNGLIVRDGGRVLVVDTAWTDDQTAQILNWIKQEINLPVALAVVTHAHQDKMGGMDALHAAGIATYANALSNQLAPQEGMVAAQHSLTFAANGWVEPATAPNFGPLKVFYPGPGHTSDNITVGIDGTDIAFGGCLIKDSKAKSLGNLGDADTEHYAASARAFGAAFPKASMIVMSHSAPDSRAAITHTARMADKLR

VIM-1 = VIM-1 (Pseudomonas aeruginosa (strain ATCC 15692 / DSM 22644 / CIP 104116 / JCM 14847 / LMG 12228 / 1C / PRS 101 / PAO1), UniProt A0A0F7KYQ8); assay: Enzyme activity: determination of IC50, fluorescence assay with CCF2-FA substrate (VIM-1); type: biochemical
[4] = fluorescence assay with CCF2-FA substrate
[5] = VIM-1 IC50, fluorescence assay with CCF2-FA substrate
[6] = IMP-1 enzyme, CCF2-FA fluorescence assay
[7] = NDM-1 enzyme, CCF2-FA fluorescence assay
[8] = VIM-1 enzyme, CCF2-FA fluorescence assay, read-out: VIM-1 IC50
[9] = fluorescence assay with CCF2-FA substrate, read-out: VIM-1 IC50

Row | SMILES | Escherichia coli expressing NDM-1 (CLB 30005) MITC95 [1] [µM] | Serratia marcescens expressing IMP-1 (CL5741) MITC95 [2] [µM] | Klebsiella pneumoniae expressing VIM-1 (IHMA 599644) MITC95 [3] [µM] | IC50 (IMP-1; [4]) [nM] | IC50 (NDM-1; [4]) [nM] | IC50 (VIM-1; [5]) [nM] | Escherichia coli MITC95 [1] [µM] | Serratia marcescens MITC95 [2] [µM] | Klebsiella pneumoniae MITC95 [3] [µM] | IC50 (IMP-1; [6]) [nM] | IC50 (NDM-1; [7]) [nM] | IC50 (VIM-1; [8]) [nM] | IC50 (VIM-1; VIM-1 IC50, VIM-1 enzyme, CCF2-FA fluorescence assay) [nM] | IC50 (VIM-1; [9]) [nM]
1 | COC(=O)c1ccc(-c2ccnc(S(N)(=O)=O)c2-c2nnn[nH]2)cc1 [Example 182, Methyl 4-(2-sulfamoyl-3-(1H-tetrazol-5-yl)pyridin-4-yl)benzoate] | 4.688 | 100 | 200 | 348 | 32.4 | 91.4 |  |  |  |  |  |  |  | 
2 | NS(=O)(=O)c1cccc(-c2ccc(N3CCCCC3)nc2)c1-c1nn[nH]n1 [Example 322, 3-(6-(piperidin-1-yl)pyridin-3-yl)-2-(2H-tetrazol-5-yl)benzenesulfonamide] |  |  |  |  |  |  | 7.813 | 25 | 200 | 321 | 36.5 | 3650 |  | 
3 | CCOCc1ccc(-c2cccc(S(N)(=O)=O)c2-c2nnn[nH]2)cc1 [Example 397, 4′-(Ethoxymethyl)-2-(1H-tetrazol-5-yl)-[1,1′-biphenyl]-3-sulfonamide] |  |  |  |  |  |  | 3.906 | 9.375 | >200 | 37.3 | 3.93 |  | 246 | 
4 | NS(=O)(=O)c1cccc(-c2cnc(C3(O)CCC3)s2)c1-c1nn[nH]n1 [Example 21, 3-[2-(1-hydroxycyclobutyl)-1,3-thiazol-5-yl]-2-(2H-tetrazol-5-yl)benzenesulfonamide] | 12.89 | 100 | >200 | 2270 | 63.8 |  |  |  |  |  |  |  |  | 564
5 | N#CC1(c2ccc(-c3cccc(S(N)(=O)=O)c3-c3nnn[nH]3)cc2)CCOCC1 [Example 25, 4′-(4-cyanotetrahydro-2H-pyran-4-yl)-2-(1H-tetrazol-5-yl)biphenyl-3-sulfonamide] | 3.125 | 12.5 | >200 | 3.6 | < 0.637 |  |  |  |  |  |  |  |  | 45.5
6 | NS(=O)(=O)c1nccc(-c2ccc3c(c2)OCC(=O)N3)c1-c1nn[nH]n1 [Example 205, 4-(3-oxo-3,4-dihydro-2H-benzo[b][1,4]oxazin-7-yl)-3-(2H-tetrazol-5-yl)pyridine-2-sulfonamide] | 0.3906 | 6.25 | 9.375 | 113 | 14.3 |  |  |  |  |  |  |  |  | 24.1
7 | N#Cc1ccc2[nH]c(-c3cccc(S(N)(=O)=O)c3-c3nn[nH]n3)cc2c1 [Example 99, 3-(5-cyano-1H-indol-2-yl)-2-(2H-tetrazol-5-yl)benzenesulfonamide] | 9.375 | 28.13 | >200 | 208 | 6.98 |  |  |  |  |  |  |  |  | 104
8 | CS(=O)(=O)c1ccc(-c2cccc(S(N)(=O)=O)c2-c2nn[nH]n2)cc1 [Example 16, 4′-(methylsulfonyl)-2-(2H-tetrazol-5-yl)biphenyl-3-sulfonamide] | 1.172 | 25 | 75 | 85.5 | 10.5 | 67.1 |  |  |  |  |  |  |  | 
9 | NS(=O)(=O)c1cccc(-c2ccc(F)nc2)c1-c1nn[nH]n1 [Example 48, 3-(6-fluoropyridin-3-yl)-2-(2H-tetrazol-5-yl)benzenesulfonamide] | 0.3906 | 33.33 | 66.67 | 644 | 19.1 |  |  |  |  |  |  |  |  | 182
10 | NS(=O)(=O)c1cccc(-c2cncs2)c1-c1nn[nH]n1 [Example 44, 2-(2H-tetrazol-5-yl)-3-(1,3-thiazol-5-yl)benzenesulfonamide] | 0.3906 | 12.5 | 37.5 | 293 | 34.6 |  |  |  |  |  |  |  |  | 294
11 | NS(=O)(=O)c1nccc(-c2ccc3cn[nH]c3c2)c1-c1nn[nH]n1 [Example 203, 4-(1H-indazol-6-yl)-3-(2H-tetrazol-5-yl)pyridine-2-sulfonamide] | 0.3906 | 50 | 9.375 | 1430 | 18.6 |  |  |  |  |  |  |  |  | 43.6
12 | Cc1nc(F)ccc1-c1cccc(S(N)(=O)=O)c1-c1nn[nH]n1 [Example 79, 3-(6-fluoro-2-methylpyridin-3-yl)-2-(2H-tetrazol-5-yl)benzenesulfonamide] | 1.563 | 150 | 25 | 3970 | 48.6 | 60.2 |  |  |  |  |  |  |  | 
13 | CNS(=O)(=O)c1ccc(-c2cccc(S(N)(=O)=O)c2-c2nn[nH]n2)cc1 [Example 57, N~4~-′-methyl-2-(2H-tetrazol-5-yl)biphenyl-3,4′-disulfonamide] | 1.563 | 4.688 | 25 | 28.9 | 4.19 |  |  |  |  |  |  |  |  | 29.7
14 | CCOC(=O)N1CCC(c2cccc(S(N)(=O)=O)c2-c2nn[nH]n2)CC1 [Example 173, ethyl 4-(3-sulfamoyl-2-(2H-tetrazol-5-yl)phenyl)piperidine-1-carboxylate] | 4.688 | 6.25 | >200 | 149 | 4.39 | 85.6 |  |  |  |  |  |  |  | 
15 | Cc1ccc(-c2ccnc(S(N)(=O)=O)c2-c2nnn[nH]2)cc1 [Example 190, 3-(1H-Tetrazol-5-yl)-4-(p-tolyl)pyridine-2-sulfonamide] | 10.42 | 100 | >200 | 3150 | 232 |  |  |  |  |  |  |  |  | 1300
16 | COc1ccc(-c2cccc(S(N)(=O)=O)c2-c2nn[nH]n2)cc1 [Example 8, 4′-methoxy-2-(2H-tetrazol-5-yl)biphenyl-3-sulfonamide] | 0.3906 | 3.125 | 200 | 78.2 | 3.99 | 79.8 |  |  |  |  |  |  |  | 
17 | NCCc1ccc(-c2cccc(S(N)(=O)=O)c2-c2nnn[nH]2)cn1 [Example 307, 3-(6-(2-aminoethyl)pyridin-3-yl)-2-(1H-tetrazol-5-yl)benzenesulfonamide] |  |  |  |  |  |  | 1.172 | 50 | 12.5 | 4890 | 174 | 96.2 |  | 
18 | NS(=O)(=O)c1cccc(-c2cnn3c2CCCC3)c1-c1nn[nH]n1 [Example 107, 3-(4,5,6,7-tetrahydropyrazolo[1,5-a]pyridin-3-yl)-2-(2H-tetrazol-5-yl)benzenesulfonamide] | 3.906 | 15.63 | 200 | 365 | 10 |  |  |  |  |  |  |  |  | 194
19 | NS(=O)(=O)c1cccc(-c2cnn(Cc3ccncc3)c2)c1-c1nn[nH]n1 [Example 100, 3-[1-(pyridin-4-ylmethyl)-1H-pyrazol-4-yl]-2-(2H-tetrazol-5-yl)benzenesulfonamide] | 7.031 | 14.06 | >200 | 146 | 29.6 |  |  |  |  |  |  |  |  | 940
20 | NS(=O)(=O)c1cccc(-c2ccc(C3(C(F)(F)F)OCCO3)nc2)c1-c1nn[nH]n1 [Example 22, 2-(2H-tetrazol-5-yl)-3-{6-[2-(trifluoromethyl)-1,3-dioxolan-2-yl]pyridin-3-yl}benzenesulfonamide] | 1.563 | 6.25 | 200 | 31.8 | 2 |  |  |  |  |  |  |  |  | 26.7
21 | NS(=O)(=O)c1nccc(-c2ccncc2)c1-c1nnn[nH]1 [Example 194, 3-(1H-tetrazol-5-yl)-[4,4′-bipyridine]-2-sulfonamide] | 0.7813 | 75 | 62.5 | 2270 | 248 |  |  |  |  |  |  |  |  | 907
